One data set has as its system A549. The data set is described as follows: Cytotoxicity against human A549 cells assessed as reduction in cell viability after 48 hrs by MTT assay. Type of data set: functional, cell-based. Particulars: A549, 48 h.
Another data set concerns SMMC-7721. The data set is described as follows: Cytotoxicity against human SMMC7721 cells assessed as reduction in cell viability after 48 hrs by MTT assay. Format: functional, cell-based. Particulars: SMMC-7721, 48 h.
The next data set has as its system BGC-823. In words: Cytotoxicity against human BGC823 cells assessed as reduction in cell viability after 48 hrs by MTT assay. Type of data set: functional, cell-based. Particulars: BGC-823, 48 h.
A short description of data set [1]: Hemolytic activity against New Zealand rabbit erythrocytes after 60 mins. Particulars: read-out: HD50. Type of data set: ADME, cell-based, Oryctolagus cuniculus, Erythrocyte.
The subject of data set [2] is MDA-MB-231. The data set is described as follows: Cytotoxicity against human MDA-MB-231 cells assessed as reduction in cell viability after 48 hrs by MTT assay. Type of data set: functional, cell-based. Particulars: MDA-MB-231, 48 h.
The test system of another data set is KB. The data set is described as follows: Cytotoxicity against human KB cells assessed as reduction in cell viability after 48 hrs by MTT assay. Type of data set: functional, cell-based.
Data set [3] in a line: Cytotoxicity against human KBVIN cells assessed as reduction in cell viability after 48 hrs by MTT assay. Format: functional, cell-based.
The next data set concerns MCF7. In words: Cytotoxicity against human MCF7 cells assessed as reduction in cell viability after 48 hrs by MTT assay. Format: functional, cell-based. Particulars: MCF7, 48 h.
The next data set has as its system H22. The data set is described as follows: Antitumor activity against […] xenografted in mouse assessed as tumor growth inhibition at 60 mg/kg/day, ip for 14 days relative to control. The following applies: 336 h, read-out: TGI. Format: functional.
Data set [4] has as its system Mus musculus. The data set is described as follows: Toxicity in mouse xenografted with […] assessed as hematuria at 60 mg/kg/day, ip for 14 days. The following applies: in vivo, 336 h. Format: organism-based.
The subject of data set [5] is Mus musculus. In words: Toxicity in mouse xenografted with […] assessed as death at 60 mg/kg/day, ip for 14 days. Type of data set: organism-based. Particulars: in vivo, 336 h.
A further data set relates to Blood. In words: Drug metabolism in mouse blood assessed as Pulsatilla saponin A formation at 60 mg/kg/day, ip for 14 days. Type of data set: ADME, organism-based. The following applies: in vivo, 336 h.
Data set [6] has as its system MDA-MB-231. In words: Cell cycle arrest in human MDA-MB-231 cells assessed as accumulation at G1 phase at 5.5 uM after 24 hrs by propidium iodide staining based flow cytometry. Format: functional.

Activity calls are given as the source filed them. No cut-off for these calls is given here. Some results are limits rather than exact numbers.

Regarding `C[C@@H]1O[C@@H](O[C@H]2[C@H](O[C@H]3CC[C@@]4(C)[C@@H](CC[C@]5(C)[C@@H]4CC=C4[C@@H]6CC(C)(C)CC[C@]6(C(=O)O)CC[C@]45C)[C@]3(C)CO)OC[C@H](O)[C@@H]2O)[C@H](O)[C@@H](O)[C@H]1O`, the concentration for half-maximal inhibition (IC50) with A549 is 18.6 to 20.9 µM; with SMMC-7721 it was 12.2 µM; in the data set on BGC-823, 14.6 µM; in the data set on MDA-MB-231 [2] it was 17.8 µM; in the data set with KB, 20.7 µM; in data set [3] it was 19.6 µM. Moreover, the IC50 with MCF7 was determined as 22.2 µM. The HC50 at 1 h in data set [1] amounted to 3.86 µM.
For `CC1(C)CC[C@]2(C(=O)N3CCN(CCC(=O)O)CC3)CC[C@]3(C)C(=CC[C@@H]4[C@@]5(C)CC[C@H](O)[C@@](C)(CO)[C@@H]5CC[C@]43C)[C@@H]2C1`, the half-inhibitory concentration (IC50) with A549 was 31.5 µM; in the data set on MDA-MB-231 [2] it was 32.9 µM; with KB, 15 µM; in data set [3], above 40 µM; in the data set with MCF7, above 40 µM. Moreover, the HC50 at 1 h in data set [1] is above 500 µM.
As for `C[C@@H]1O[C@@H](O[C@H]2[C@H](O[C@H]3CC[C@@]4(C)[C@@H](CC[C@]5(C)[C@@H]4CC=C4[C@@H]6CC(C)(C)CC[C@]6(C(=O)NCC(=O)O)CC[C@]45C)[C@]3(C)CO)OC[C@H](O)[C@@H]2O)[C@H](O)[C@@H](O)[C@H]1O`, the inhibition in vivo at 60 mg/kg/day in the data set on H22 turned out to be 35.6%. Moreover, the Activity result with Mus musculus [4] and with Mus musculus [5] was “Non-Toxic” in each case. In addition, in the data set with Blood, the Drug metabolism result is on record as “Metabolite_Notdetected”.
With `CC1(C)CC[C@]2(C(=O)O)CC[C@]3(C)C(=CC[C@@H]4[C@@]5(C)CC[C@H](O)[C@@](C)(CO)[C@@H]5CC[C@]43C)[C@@H]2C1` [HEDERAGENIN], the 50% inhibitory concentration (IC50) in the data set with A549 was 10.2 µM; in the data set on MDA-MB-231 [2] it was 36.6 µM; in the data set with KB, 14.6 µM; in data set [3], 27.9 µM; in the data set with MCF7 it was 39.4 µM. Moreover, the HC50 at 1 h in [1] is above 200 µM.
Consider `COC(=O)CCN1CCN(C(=O)[C@]23CCC(C)(C)C[C@H]2C2=CC[C@@H]4[C@@]5(C)CC[C@H](OC(C)=O)[C@@](C)(COC(C)=O)[C@@H]5CC[C@@]4(C)[C@]2(C)CC3)CC1`, for which the half-inhibitory concentration (IC50) with A549 turned out to be 4.69 µM; in the data set with MDA-MB-231 [2], 5.54 µM; in the data set with KB, 5.08 µM; in [3] it was 5.25 µM; in the data set on MCF7, 10.7 µM. In data set [1], the HC50 at 1 h was above 500 µM. Further, the outcome in the data set with MDA-MB-231 [6] was Active.
